This passage reports KDeff results from publication PMC6838323 (2019).

Holding throughout (assay): fluorescence (Cy3/DABCYL) titration, two-site fit
What all share (settings): 6 mM Mg2+; 10 mM Tris-HCl pH 7.5, 25 °C; 250 nM aptamer; apparent; ATP up to 6.75 mM

Assay [1] has as its system 8_36 (DNA, aptamer) CACCTGGGGGAGTATTGCGGAGGAAGGTTTTTTTTTTTTTTTTTCCCAGGTG
The test system of assay [2] is 8_23 (DNA, aptamer) CACCTGGGGGAGTATTGCGGAGGAAGGTTTTCCCAGGTG
In assay [3] the test system is 6_36 (DNA, aptamer) CACCTGGGGGAGTATTGCGGAGGAAGGTTTTTTTTTTTTTTTCAGGTG
For assay [4], the system named is 9_25 (DNA, aptamer) CACCTGGGGGAGTATTGCGGAGGAAGGTTTTTTTCCCCAGGTG
The test system of assay [5] is 8_43 (DNA, aptamer) CACCTGGGGGAGTATTGCGGAGGAAGGTTTTTTTTTTTTTTTTTTTTTTTTCCCAGGTG
For assay [6], the system named is 9_36 (DNA, aptamer) CACCTGGGGGAGTATTGCGGAGGAAGGTTTTTTTTTTTTTTTTTTCCCCAGGTG
The subject of assay [7] is 9_33 (DNA, aptamer) CACCTGGGGGAGTATTGCGGAGGAAGGTTTTTTTTTTTTTTTCCCCAGGTG
For assay [8], the system named is 9_43 (DNA, aptamer) CACCTGGGGGAGTATTGCGGAGGAAGGTTTTTTTTTTTTTTTTTTTTTTTTTCCCCAGGTG
The test system of assay [9] is 8_33 (DNA, aptamer) CACCTGGGGGAGTATTGCGGAGGAAGGTTTTTTTTTTTTTTCCCAGGTG
Assay [10] deals with 6_25 (DNA, aptamer) CACCTGGGGGAGTATTGCGGAGGAAGGTTTTCAGGTG
For assay [11], the system named is 7_25 (DNA, aptamer) CACCTGGGGGAGTATTGCGGAGGAAGGTTTTTCCAGGTG
Assay [12] concerns 8_25 (DNA, aptamer) CACCTGGGGGAGTATTGCGGAGGAAGGTTTTTTCCCAGGTG
For assay [13], the system named is 7_36 (DNA, aptamer) CACCTGGGGGAGTATTGCGGAGGAAGGTTTTTTTTTTTTTTTTCCAGGTG
Assay [14] concerns 7_33 (DNA, aptamer) CACCTGGGGGAGTATTGCGGAGGAAGGTTTTTTTTTTTTTCCAGGTG
The subject of assay [15] is 9_23 (DNA, aptamer) CACCTGGGGGAGTATTGCGGAGGAAGGTTTTTCCCCAGGTG
The test system of assay [16] is 6_33 (DNA, aptamer) CACCTGGGGGAGTATTGCGGAGGAAGGTTTTTTTTTTTTCAGGTG
The subject of assay [17] is 7_23 (DNA, aptamer) CACCTGGGGGAGTATTGCGGAGGAAGGTTTCCAGGTG
For assay [18], the system named is 7_43 (DNA, aptamer) CACCTGGGGGAGTATTGCGGAGGAAGGTTTTTTTTTTTTTTTTTTTTTTTCCAGGTG
The subject of assay [19] is 6_23 (DNA, aptamer) CACCTGGGGGAGTATTGCGGAGGAAGGTTCAGGTG

For the compound `Nc1ncnc2c1ncn2[C@@H]1O[C@H](COP(=O)(O)OP(=O)(O)OP(=O)(O)O)[C@@H](O)[C@H]1O`, the KDeff worked out at 0.352 ± 0.043 mM in assay [1]; 3.58 ± 1.37 mM in assay [2]; 0.0107 ± 0.0019 mM in [3]; 12.8 ± 1.7 mM in [4]; 0.388 ± 0.124 mM in assay [5]; 2.72 ± 1.47 mM in assay [6]. In addition, the KDeff in assay [7] is 4.98 ± 0.53 mM; in [8] it was 0.967 ± 0.085 mM; in assay [9], 0.734 ± 0.01 mM; in [10] it was 0.0262 ± 0.0095 mM; in assay [11], 0.271 ± 0.038 mM; in [12], 2.29 ± 0.05 mM. Moreover, the KDeff came out at 0.0709 ± 0.0018 mM in assay [13]; 0.0985 ± 0.0481 mM in [14]; 39.0 ± 35.7 mM in assay [15]; 0.0182 ± 0.0076 mM in assay [16]; 0.382 ± 0.034 mM in assay [17]; 0.0298 ± 0.0031 mM in assay [18]. Further, the KDeff in assay [19] came to 0.0314 ± 0.0111 mM.
